Test results published in patent US20080227829A1, “Neurogenic compounds” (priority 2007, published 2008).
Entries after “also recorded” stand apart in the source; their conditions may differ.

Key:
mice = experiment: Morris water maze (acquisition training and probe trial), long-term injection study; assay type: in vivo
Experimental: A six-week study was conducted in which apigenin was administered by injection to mice at two different doses in conjunction with or without daily voluntary exercise (running). Behavioral testing was administered after 30 days of injections using the Morris water maze and object recognition test. Apigenin was dissolved in [10:90] Tween 80: 0.9% NaCl. All compounds were purchased from commercial sources. Aliquots of Tween 80: 0.9% NaCl solutions were used for testing in the in vivo model. Sixty-four mice (age seven wks) were divided into four test groups (sixteen per group) and received either: Injections were administered intraperitoneally (i.p.) for forty-two days total. In addition to test injections, daily i.p. injections of 5-bromo-2-deoxyuridine (BrdU) [10 mg/ml] were administered for the first eight days at a dose of 50 mg/kg. Within each test group, eight mice were randomly selected to receive running exercise. These thirty-two mice (eight mice per injection group) were transferred daily (on Days 1-40 of the study) from their normal static housing to an automated voluntary running wheel cage for two hours a day. Non-running mice remained in their static cages throughout the study. On Day 31, all mice began acquisition training on the Morris water maze immediately following their i.p. injection. See, e.g., Morris, Developments of a water-maze procedure for studying spatial learning in the rat, J. Neurosci. Methods, 11(1) (1984), hereby incorporated herein by reference. Mice were trained for nine consecutive days, receiving two trials a day using a hidden platform paradigm. The platform was located in the northwest (NW) quadrant of the water maze. To measure the effect of apigenin (with or without exercise) on learning, latency to platform was recorded for each trial. After daily training on the water maze, non-running mice were returned to their normal static housing while running mice were placed into their running wheel cages for two hours. On Day 9 of the water maze training, the mice received a probe trial 4 hours after the last training. During the probe trial the platform was removed and retention of memory of the target NW quadrant was recorded.

dentate gyrus [1] = experiment: BrdU/NeuN/GFAP phenotyping of newly dividing cells (neurogenesis) in the dentate gyrus; assay type: in vivo, mice; conditions: for number of BrdU+ cells co-labeled with NeuN (new neurons) in the dentate gyrus: 25 mg/kg i.p. 42 days, runners, vs all other groups, p<0.001
Text: After the long-term study of Example 1 and all behavioral testing was concluded (Day 42), mice were perfused using 4% paraformaldehyde and their brain tissue was extracted. Brain tissue was sectioned and stained for BrdU/DAB quantification of dividing cells. A second immunofluorescence stain was used for phenotyping of the newly dividing cells. Brain sections were also taken and stained with Brdu/NeuN/GFAP. Phenotype analysis was completed to determine the percentage of dividing cells co-labeled with NeuN, a marker used to identify mature neurons. Using the percentage, it was possible to calculate the total number of BrdU/NeuN co-labeled cells in the dentate gyrus.

dentate gyrus [2] = experiment: 10-day oral (food) and i.p. study, BrdU/DAB quantification of dividing cells; assay type: in vivo, mice; conditions: 10 days; i.p. injection (apigenin 25 mg/kg, epicatechin 20 mg/kg) or food 250 ppm and 500 ppm; vs controls
Experimental: A 10-day food study was conducted in which the effects of oral administration of apigenin were compared with apigenin effects upon injection. Food pellets containing epicatechin were tested alongside apigenin. Animals were fed food containing apigenin, epicatechin or control pellets in two doses: 250 ppm and 500 ppm. Aliquots of apigenin and epicatechin were dissolved in [10:90] Tween 80: 0.9% NaCl. Aliquots of Tween 80: 0.9% NaCl were used as controls. Forty mice (age seven weeks) were divided into three test injection groups (n=five per group) and five test food groups (n=five per group) and received: Test injections were administered i.p. for ten days total. Test food was distributed on Day 1 and mice were allowed to eat freely for the duration of the ten days. Daily i.p. injections of BrdU [10 mg/ml] were administered to all animals the first eight days of this study at a dose of 50 mg/kg. At the end of ten days, all mice were perfused using 4% paraformaldehyde and their brain tissue was extracted. Brain tissue was sectioned and stained for BrdU/DAB quantification for dividing cells.

AKT = experiment: Western blot of phosphorylated signaling mediators; assay type: cell-based; conditions: 5 mM apigenin; by six hours; adult neural progenitor cells starved two hours; normalized to unphosphorylated form
Experimental: (§1) Adult neural progenitor cells were grown in proliferating conditions (N2 containing FGF2) in six-well plates for at least twenty-four hours. Before collecting cell lysates, the media was removed and replaced with DMEM/F12 for two hours (DMEM/F12 is defined media which lacks insulin and FGF2, two factors known to trigger various cell signaling pathways). In this key “starvation” step, the activation of various downstream mediators returned to steady-state levels. Cells were starved for two hours and the time zero data were collected. One of the following was added and the lysates collected at various time-points: (1) N2 only or (−) DMSO (negative control); (2) (+) DMSO (also a negative control); (3) apigenin; or (4) RA+FSK (positive control). Two time-course experiments were then carried out. The first was an early time-course to measure the acute effects of apigenin at zero minutes, ten minutes, thirty minutes, two hours, six hours, and twenty-four hours. The second experiment was a late time-course to measure long-term effects of apigenin at zero, one, two, three, and four days; the results of this experiment are not discussed here. Cell lysates were then loaded and transferred to Western Blots and the membranes hybridized with antibodies against the phosphorylated and unphosphorylated forms of each protein. The data results with the unphosphorylated form of the protein are not discussed here. The data discussed with respect to the phosphorylated protein are representative of at least three independent experiments and are normalized to the unphosphylated forms (internal control).

CREB = experiment: Western blot of phosphorylated signaling mediators; assay type: cell-based; conditions: adult neural progenitor cells; negative controls show the same results
Experimental: as §1

GSK3b = experiment: Western blot of phosphorylated signaling mediators; assay type: cell-based; conditions: adult neural progenitor cells; negative controls show the same results
Experimental: as §1

b-catenin = experiment: Western blot of phosphorylated signaling mediators; assay type: cell-based; conditions: adult neural progenitor cells; negative controls show the same results
Experimental: as §1

SMILES: O=c1cc(-c2ccc(O)cc2)oc2cc(O)cc(O)c12 [apigenin]
- probe trial: frequency into target quadrant (mice; 12.5 mg/kg i.p., non-runners, p<0.06): trend toward significance
- latency to platform (acquisition phase) (mice; 12.5 mg/kg i.p., non-runners, vs control): No significant differences
- probe trial: frequency into target quadrant (mice; 12.5 mg/kg i.p., runners, p<0.001): significant preference for the target quadrant
- latency to platform (acquisition phase) (mice; 12.5 mg/kg i.p., runners, vs control runners and control non-runners, p<0.05): significantly shorter latencies
- probe trial: frequency into target quadrant (mice; 25 mg/kg i.p., non-runners, p<0.05): significant preference for the target quadrant
- latency to platform (acquisition phase) (mice; 25 mg/kg i.p., non-runners, vs control runners, p<0.05): significantly different from the control runners
- probe trial: frequency into target quadrant (mice; 25 mg/kg i.p., runners, p<0.06): strong preference for entering the target quadrant more frequently than other quadrants, although this is not statistically significant
- latency to platform (acquisition phase) (mice; 25 mg/kg i.p., runners, vs control runners and control non-runners, p<0.05): significantly shorter latencies
- probe trial: total duration of time spent in the quadrants (mice; 12.5 and 25 mg/kg i.p., runners and non-runners): no significant differences among the groups
- probe trial: frequency in quadrants (FIG. 1 legend) (mice; apigenin treated mice, runners and non-runners): entered the target quadrant more frequently than all other quadrants
- learning (summary of water maze) (mice; with or without exercise): increases learning with or without exercise
- number of BrdU+ cells co-labeled with NeuN (new neurons) in the dentate gyrus (dentate gyrus [1]): significantly higher number of new neurons than all other mice in the study
- number of BrdU+ cells co-labeled with NeuN (new neurons) in the dentate gyrus (dentate gyrus [1]; listed as Apigenin): significantly more new neurons than all other groups; also recorded: greatest increase in neurogenesis
- differentiation of the dividing cells into neurons (dentate gyrus [1]; overall statement): increases
- number of dividing cells (BrdU+) in the dentate gyrus (dentate gyrus [2]): significant increase in the number of dividing cells; also recorded: increased BrdU labeling
- phosphorylation of AKT (pAKT) (AKT): increased phosphorylation of AKT
- phosphorylation of CREB (CREB): non-specific effects
- phosphorylation of GSK3b (GSK3b): non-specific effects
- phosphorylation of b-catenin (b-catenin): non-specific effects
